Source: the METLIN SMRT retention time set (Domingo-Almenara et al. 2019)

Experiment: gradient 5% acetonitrile 3 min, to 50% in 2 min, to 85% in 15 min, held 3 min, 100 µL/min
Details: column: Zorbax Extend-C18 2.1 x 50 mm; eluents: water / acetonitrile, 0.1% formic acid
Method in brief: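 Retention times of pure standards were taken from adduct peaks that were selected by computer and manually inspected. Over 3 months, mixtures of ~100 molecules were run by HPLC–quadrupole time-of-flight mass spectrometry in positive and negative ionization mode. The Zorbax Extend-C18 column (2.1 × 50 mm, 1.8 μm) ran at 100 μL/min in water and acetonitrile, each containing 0.1% formic acid, with 40 μL dead volume and 900 μL dwell volume.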

| RP-LC retention time [s] | SMILES |
| --- | --- |
| 891 | CCOC(=O)Cc1csc(NC(=O)Cc2cc(-c3cc4ccccc4o3)on2)n1 |
| 580 | Cn1cc(CN2CCC(C(=O)NCCCN3CCOCC3)CC2)c2cc(Cl)ccc21 |
| 702 | CCc1nc2nccc(-c3ccc(OC)c(OC)c3)n2n1 |
| 919 | CN1C(=O)COc2cc(-c3noc(C(=O)N4CCCCCC4)n3)ccc21 |
| 894 | CN(C)c1ccc(-c2nc3cnc(Br)cn3c2Nc2ccc3c(c2)OCO3)cc1 |
| 861 | Cc1ccc(CNC(=O)N2CC(Oc3ccc(-c4nc(C)no4)cc3)C2)cc1 |
| 604 | Cc1ccc(C(=O)N2CCN(c3ccccn3)CC2)cc1NC(=O)C1=CSCCO1 |
| 1010 | Cn1c(=O)c2c(Nc3ccc(C(F)(F)F)cc3)ccnc2n(C)c1=O |
| 719 | Cc1ccc(-c2ccc(N3CCCC(C(=O)NCc4ccco4)C3)nn2)cc1C (stereo not drawn) |
| 1060 | Cc1cc2nn(CC(=O)N3CCCc4ccccc43)c(=O)n2c(Nc2ccc(F)cc2)n1 |
| 1020 | Cc1cc(-c2nc(C3CC3)no2)c(C)n1CC(=O)Nc1ccc(Cl)cc1 |
| 763 | CCc1cc(=O)n(CC(=O)Nc2cccc(F)c2)c(N2CCOCC2)n1 |
| 608 | CN(C)C(=O)c1cn(C2CN(C(=O)c3cccc4[nH]ccc34)C2)nn1 |
| 860 | Cc1cccc2c1NC(=O)C2(O)CC(=O)c1ccc(C(C)C)cc1 (stereo not drawn) |
| 800 | COc1ccc(NC(=O)c2c(O)c3cccnc3n(-c3ccc(OC)cc3)c2=O)cc1 |
| 883 | Cc1sc(NC(=O)c2cccs2)nc1-c1ccc2c(c1)NC(=O)C(C)O2 (stereo not drawn) |

| RP-LC retention time [s] | SMILES |
| --- | --- |
| 644 | CN(C(=O)Cn1nc(Cc2ccncc2)c2ccccc2c1=O)c1cccc(Cl)c1 |
| 1060 | Cc1ccc(-c2nnc(Cc3nc(-c4cccc(F)c4)no3)o2)cc1 |
| 951 | O=C(Nc1ccc(N2CCOCC2)cc1)C1CCCN(c2ncc(-c3ccc(F)cc3)cn2)C1 (stereo not drawn) |
| 1100 | O=C(Cn1cnc2onc(-c3ccc(Cl)cc3)c2c1=O)N1CCCc2ccccc21 |
| 906 | COC(=O)c1ccc(NC(=O)N(C)CCc2noc(C3CCCCC3)n2)cc1 |
| 996 | COc1ccc(-c2noc(Cc3nnc(-c4ccc(C)c(F)c4)o3)n2)cc1OC |
| 646 | Cc1nnc(NC(=O)c2ccc3c(c2)OCO3)s1 |
| 718 | Cc1ccc(-c2cc(C(=O)N3CCN(Cc4ccc5c(c4)OCO5)CC3)c(C)[nH]2)cc1C |
| 823 | Cc1cccc(-c2nnc3ccc(Cl)nn23)c1 |
| 802 | O=C(NCc1ccc(Cl)cc1)C1CC(=O)N(CCc2c[nH]c3ccc(F)cc23)C1 (stereo not drawn) |
| 988 | Cn1cc2c3c(cccc31)CN(C(=O)c1ccc(Cl)cc1)CC2 |
| 772 | Cn1ncc(NC(=O)Cc2ccc(Cl)cc2)c(N2CCOCC2)c1=O |
| 765 | O=C(c1ccc(Br)o1)N1CCC(c2nnc(-c3ccco3)s2)CC1 |
| 698 | Cc1cccc(Cn2c(=O)n(CCNC(=O)C3CCOC3)c3ncccc32)c1 (stereo not drawn) |
| 978 | Cn1c(C(=O)N2CCC(C(=O)NCc3ccccc3Cl)CC2)cc2oc3ccccc3c21 |

Second part, the compound before the results:

| SMILES | RP-LC retention time [s] |
| --- | --- |
| O=S(=O)(Cc1ccccc1F)N1CCCCC1c1nc(-c2ccccc2)n[nH]1 (stereo not drawn) | 948 |
| COc1cccc(Nc2nc(-c3ccc(I)cc3)cs2)c1 | 1270 |
| CCn1cnc(S(=O)(=O)N2CCC(C(=O)NCC(C)c3ccccc3)CC2)c1 (stereo not drawn) | 732 |
| CCOc1ccc(C2c3[nH]c4ccccc4c3CCN2C(=O)Cc2cccs2)cc1 (stereo not drawn) | 1190 |
| CNC(=O)[C@@H]1CN(C(=O)c2cccc(Br)c2)C[C@H]1CO | 586 |
| Cc1nc(-c2cccnc2)n2c(=O)n(CCc3ccccc3)nc2c1C | 786 |
| CN(CCCNC(=O)C1CCCN(c2nnc(-n3cccc3)s2)C1)C1CCCCC1 (stereo not drawn) | 653 |
| O=C(NCc1cccc2ccccc12)NCC1CN(c2ccccc2)C(=O)O1 (stereo not drawn) | 781 |
| Cc1ccc(-c2cn3ccccc3n2)cc1NS(=O)(=O)c1ccc(F)cc1 | 665 |
| O=c1n(CC2CC2)nc2n1CCC(NS(=O)(=O)Cc1ccccc1)CC2 (stereo not drawn) | 704 |
| COc1ccc(C(=O)N2CCN(c3cc(C(C)C)n4cnnc4n3)CC2)c(OC)c1 | 609 |
| c1csc(CN2CCC(c3nc(-c4cnccn4)n[nH]3)CC2)c1 | 555 |
| CC1CCN(S(=O)(=O)c2ccc(-c3nnc(C(=O)N4CCN(C)CC4)o3)cc2)CC1 | 665 |
| CN(C)C[C@@H]1CN(Cc2ccccn2)C[C@H]1NS(=O)(=O)c1cccc(F)c1 | 553 |
| COc1ccc(/C=C/C(=O)c2c(OC)cc(O)cc2OC)cc1 | 1160 |
| Cc1oc(-c2[nH]ncc2C(=O)N2CCOCC2)cc1S(=O)(=O)NCC1CCCCC1 | 742 |
| Cn1cc(CCNC(=O)c2cncc(Br)c2)c2cccnc21 | 638 |
| COc1cccc(S(=O)(=O)N2C[C@@H](F)C[C@H]2C(=O)N2CCc3ccccc3C2)c1 | 904 |
| CCC1(C(=O)NCCCN2CCc3ccccc3C2)CCCCC(=O)N1 (stereo not drawn) | 582 |

| SMILES | RP-LC retention time [s] |
| --- | --- |
| CC(C)c1ccc(S(=O)(=O)N2CCc3nc(-c4ccccc4)ncc3C2)cc1 | 1230 |
| O=C(c1cc(-c2ccncc2)n[nH]1)N1CCC(C(=O)N2CCc3ccccc3C2)CC1 | 614 |
| O=C(NCCN1CCCC1)c1nnc(-c2ccc(S(=O)(=O)N3CCCC3)cc2)o1 | 602 |
| Nc1ccc(C(=O)C(=O)c2ccc(N)cc2)cc1 | 730 |
| CCOc1cc(=O)n2c(c1C(=O)Nc1cc(Cl)c(OC)cc1OC)CCCC2 | 758 |
| COC(=O)c1ccc(NC(=O)N2[C@H]3CC[C@@H]2c2cnc(C)nc2C3)cc1 | 653 |
| CCc1cnc2c(c1SCC(=O)N(C)c1ccccc1)c(=O)n(C)c(=O)n2C | 800 |
| Cc1cn(C)c(CC(=O)NCc2cccs2)c1C(=O)O | 693 |
| CCC(=O)N1CCc2c(sc3ncnc(NCc4ccccn4)c23)C1 | 559 |
| CCOC(=O)C(=CNc1ccccc1Cl)C(=O)OCC | 1130 |
| CCC(C)NC(=O)c1cccc(C)c1 (stereo not drawn) | 847 |
| CCNC(=O)[C@H]1O[C@@H](n2cnc3c(N)ncnc32)C(O)[C@H]1O (stereo partly drawn) | 555 |
| Cc1ccccc1Cn1cc(-c2ccncc2)cc1C(=O)NCc1ccccc1 | 735 |
| Cc1ccc2c(c1)N(CCCC(=O)N1CCN(Cc3cn(C)c4ccccc34)CC1)C(=O)CO2 | 706 |
| CN(NC1=NCCO1)c1ccc2ccccc2c1 | 620 |
| Cc1ccc(CNC(=O)N2CCC3(CC2)NC(=O)c2ccccc2O3)cc1 | 757 |
| O=C(NCC(O)(c1ccccc1)C(F)(F)F)c1cccs1 (stereo not drawn) | 815 |
| COc1ccc(C(=O)Oc2ccc(/C=C/c3ccncc3)cc2OC)cc1OC | 606 |
